Reference: article PMC4583449, “Characterisation of (R)-2-(2-Fluorobiphenyl-4-yl)-N-(3-Methylpyridin-2-yl)Propanamide as a Dual Fatty Acid Amide Hydrolase: Cyclooxygenase Inhibitor” (PLoS ONE, 2015)
Values joined by “and” are separate entries in the source; they are usually repeats but may differ in a detail not shown here. Identical values can stand only once.

Biological target: T1, ovine COX-1 (Ovis aries, UniProt P05979)
T1 construct: purchased Cayman Chemical Co. 60100
T1 sequence (P05979 25-600): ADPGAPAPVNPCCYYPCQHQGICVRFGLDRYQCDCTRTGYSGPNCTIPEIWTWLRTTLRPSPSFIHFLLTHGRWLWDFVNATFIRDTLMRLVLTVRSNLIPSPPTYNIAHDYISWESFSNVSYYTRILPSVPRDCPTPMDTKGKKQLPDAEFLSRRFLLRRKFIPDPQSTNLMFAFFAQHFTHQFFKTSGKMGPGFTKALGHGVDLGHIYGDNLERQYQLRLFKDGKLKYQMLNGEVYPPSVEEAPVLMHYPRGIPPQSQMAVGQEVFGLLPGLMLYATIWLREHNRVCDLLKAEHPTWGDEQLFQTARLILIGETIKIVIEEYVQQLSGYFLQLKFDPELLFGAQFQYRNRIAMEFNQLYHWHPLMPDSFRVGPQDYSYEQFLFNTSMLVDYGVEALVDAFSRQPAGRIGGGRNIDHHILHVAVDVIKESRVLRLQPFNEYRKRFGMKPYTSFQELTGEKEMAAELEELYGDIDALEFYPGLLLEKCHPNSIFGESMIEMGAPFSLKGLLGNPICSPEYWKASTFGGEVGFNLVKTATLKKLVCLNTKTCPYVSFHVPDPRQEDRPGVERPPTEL
Assay: COX-1 inhibition, oxygraphic method (oxygen electrode)
Type: biochemical
Settings: 10 μM arachidonic acid; no preincubation phase; approximate, from initial velocities
Description: The assay was performed according to Meade et al. with minor modifications. An oxygen electrode chamber with integral stirring (Oxygraph System, Hansatech Instruments, King´s Lynn, U.K.) was calibrated daily to ambient temperature and air pressure. The assay buffer contained 0.1 M Tris-HCl buffer pH 7.4, 1 μM haematin, 2 mM phenol, 5 mM EDTA, 10 μM substrate (arachidonic acid or 2-AG) (final assay volume was 2 ml). After addition of (R)- or (S)-Flu-AM1 dissolved in ethanol (final assay concentration 1%), a baseline was established for 5 min before initiation of reaction by addition of 200 units ovine COX-1 or human recombinant COX-2. The change in oxygen consumption as a measurement of enzyme activity was monitored for approximately 5 min.

For `Cc1cccnc1NC(=O)[C@H](C)c1ccc(-c2ccccc2)c(F)c1` [(R)-Flu-AM1, (R)-2-(2-Fluorobiphenyl-4-yl)-N-(3-Methylpyridin-2-yl)Propanamide], the IC50 was 6 µM and ~6 µM.
